From patent US7919673B2, “Transgenic pig with altered incretin function” (Ludwig-Maximilians-Universitat, priority 2008, dated 2011)
“Also recorded” adds a separate entry of the source.

Tests used:
[1] = system: GIPR^dn transgenic (tg) and control (wt) pigs; test: GIP/Exendin-4 stimulation test in 7-months-old (28-36 weeks) pigs; assay type: in vivo, pig; conditions: 28- to 36-week-old; for insulin secretion compared to glucose administration alone: 10 pmol/kg BW Exendin-4 i.v. 3 min after i.v. glucose, p<0.05
Description: (§1) For the oral glucose tolerance test (OGTT), one central venous catheter (Cavafix® Certo®, B. Braun, Melsungen, Germany) was inserted non-surgically into the external jugular vein under general anesthesia according to the manufacturer's instructions. For accomplishment of the GIP/Exendin-4 stimulation test as well as the intravenous glucose tolerance test, two central venous catheters (Cavafix® Certo®, B. Braun) were surgically inserted into the external jugular vein under general anesthesia using a modified method of Moritz et al. (24). At the start of the study period, all animals had fully recovered from the surgical procedure as evaluated by normal behavior and food intake.
(§2) The OGTT was performed in 11-week old and 5-month-old non-restrained, freely moving animals. After an 18-h overnight fast, animals were fed 2 g/kg BW glucose (25) mixed with 100 g of commercial pig fodder (Deuka primo care in 11-week-old pigs; Deuka porfina U in 5-month-old pigs; Deuka, Düsseldorf, Germany). The meal was eaten from a bowl under supervision. Blood samples were obtained from the jugular vein catheter at −10, 0, 15, 30, 45, 60, 90 and 120 minutes relative to the glucose load in 11-week-old pigs and at −15, −5, 0, 15, 30, 45, 60, 90, 120, 150 and 180 minutes relative to the glucose load in 5-month-old pigs. Serum glucose levels were determined using an AU 400 autoanalyzer (Olympus, Hamburg, Germany) while serum insulin levels were measured in duplicate using a porcine insulin radioimmunoassay (RIA) kit (Millipore, Billerica, USA) according to the manufacturer's instructions.
(§3) The GIP/Exendin-4 stimulation test was performed in 10- to 13-week old and 7-months-old (28-36 weeks) non-restrained freely moving animals. In 7-months-old animals, 0.5 g glucose/kg BW were administered intravenously as a bolus of concentrated 50% glucose solution following an 18-hour fasting period (26). After three minutes 20 pmol/kg BW of synthetic porcine GIP (Bachem, Weil am Rhein, Germany) or 10 pmol/kg BW of synthetic Exendin-4 (Bachem) were administered intravenously. Blood samples were collected −15, 0, 1, 3, 6, 9, 11, 13, 18, 23, 28, 33, 48 and 60 minutes relative to the glucose load. In 10- to 13-week-old animals, 0.5 g glucose/kg BW were administered intravenously as a bolus of concentrated 50% glucose solution following an 18-hour fasting period (26). Right after glucose administration 80 pmol/kg BW of synthetic porcine GIP (Bachem, Weil am Rhein, Germany) or 40 pmol/kg BW of synthetic Exendin-4 (Bachem) were administered intravenously. […]
(§4) All data are presented as means±SEM. […] Data from the GIP/Exendin-4 stimulation tests in 10- to 13-week-old animals as well as from proliferation index (Ki67 immunohistochemistry) were analyzed using ANOVA (analysis of variance) (SAS). […]

[2] = system: GIPR^dn transgenic (tg) and control (wt) pigs; test: GIP/Exendin-4 stimulation test in 10- to 13-week-old pigs; assay type: in vivo, pig; conditions: for insulinotropic effect in GIPR^dn transgenic pigs compared to controls: 10- to 13-week-old (eleven-week-old) pigs, intravenously administrated with glucose
Description: as §1, §2, §3, §4

Substance	increase in glucose-induced insulin concentration (Δ insulin) ([1]; GIPR^dn transgenic pigs, 20 pmol/kg BW GIP i.v. 3 min after 0.5 g/kg i.v. glucose, glucose alone 7 μU/ml) [μU/ml]	increase in i.v. glucose-induced serum insulin concentration (Δ insulin) ([1]; control (wt) pigs, 20 pmol/kg BW GIP i.v. 3 min after 0.5 g/kg i.v. glucose, glucose alone 27 μU/ml) [μU/ml]	insulinotropic effect in GIPR^dn transgenic pigs compared to controls [2]	serum insulin levels in control pigs compared to GIPR^dn transgenic pigs ([2]; 10- to 13-week-old pigs, 80 pmol/kg BW GIP i.v. together with 0.5 g/kg i.v. glucose)	insulin secretion compared to glucose administration alone ([1]; GIPR^dn transgenic pigs)	insulin secretion compared to glucose administration alone ([1]; control pigs)	insulin secretion in GIPR^dn transgenic pigs compared to controls ([2]; 10- to 13-week-old pigs, 40 pmol/kg BW Exendin-4 i.v. together with 0.5 g/kg i.v. glucose, p<0.01)
glucose-dependent insulinotropic polypeptide [GIP]	11	58	blunted; also recorded: impaired	significantly (p<0.01) higher insulin levels			
Exendin-4			enhanced		significant stimulation; also recorded: significant increase	significant increase	increased insulin secretion; also recorded: significantly higher increase
